Paper PMC8617627, “Novel DYRK1A Inhibitor Rescues Learning and Memory Deficits in a Mouse Model of Down Syndrome” (Pharmaceuticals, 2021)
Read-outs that look alike come from different tables or passages of the source.

Experiments:
Assay in all cases: Kinase profile (33P ATP filter binding)
Type in all cases: biochemical
HIPK3 = HIPK3 (Homo sapiens, UniProt Q9H422); settings: read-out: Remaining protein kinase activity
JAK2 = JAK2 (Homo sapiens, UniProt O60674)
NEK2a = target: T1, NEK2a (Homo sapiens, UniProt P51955); settings: read-out: Remaining protein kinase activity
T1 sequence (P51955 1-445): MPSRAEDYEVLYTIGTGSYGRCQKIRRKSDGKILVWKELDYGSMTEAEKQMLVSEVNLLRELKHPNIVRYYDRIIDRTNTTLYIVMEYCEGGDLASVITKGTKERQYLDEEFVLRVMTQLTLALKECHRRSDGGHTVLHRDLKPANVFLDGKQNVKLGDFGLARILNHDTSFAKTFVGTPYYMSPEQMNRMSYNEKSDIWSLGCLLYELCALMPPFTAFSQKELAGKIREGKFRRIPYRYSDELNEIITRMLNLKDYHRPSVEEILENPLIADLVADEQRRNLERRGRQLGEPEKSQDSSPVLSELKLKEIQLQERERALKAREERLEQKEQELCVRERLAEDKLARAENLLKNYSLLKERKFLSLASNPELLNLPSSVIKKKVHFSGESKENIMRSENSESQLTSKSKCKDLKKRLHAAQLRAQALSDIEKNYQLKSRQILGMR

PIM1 = PIM1 (Homo sapiens, UniProt P11309); settings: read-out: Remaining protein kinase activity
PINK = target: T2, PINK (Tribolium castaneum, UniProt D6WMX4); settings: read-out: Remaining protein kinase activity
T2 sequence (D6WMX4 1-570): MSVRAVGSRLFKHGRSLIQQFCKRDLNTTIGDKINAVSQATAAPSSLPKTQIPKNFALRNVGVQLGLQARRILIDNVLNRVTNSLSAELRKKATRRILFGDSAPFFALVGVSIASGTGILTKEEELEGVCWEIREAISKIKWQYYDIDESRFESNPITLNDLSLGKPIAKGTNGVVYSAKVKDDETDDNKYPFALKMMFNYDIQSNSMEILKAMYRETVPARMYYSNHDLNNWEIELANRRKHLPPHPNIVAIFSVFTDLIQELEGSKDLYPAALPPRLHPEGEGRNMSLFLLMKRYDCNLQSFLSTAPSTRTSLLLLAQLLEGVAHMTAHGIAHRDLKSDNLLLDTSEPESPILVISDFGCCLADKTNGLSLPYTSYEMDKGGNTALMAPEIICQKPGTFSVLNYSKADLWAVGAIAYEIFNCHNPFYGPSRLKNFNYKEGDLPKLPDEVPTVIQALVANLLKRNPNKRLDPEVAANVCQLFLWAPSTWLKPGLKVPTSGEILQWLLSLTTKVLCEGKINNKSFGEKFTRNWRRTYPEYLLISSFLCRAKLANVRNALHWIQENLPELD

PKCγ = PKCγ (Homo sapiens, UniProt P05129); settings: read-out: Remaining protein kinase activity
PRAK = target: T3, PRAK (Homo sapiens, UniProt Q8IW41); settings: read-out: Remaining protein kinase activity
T3 sequence (Q8IW41 1-473): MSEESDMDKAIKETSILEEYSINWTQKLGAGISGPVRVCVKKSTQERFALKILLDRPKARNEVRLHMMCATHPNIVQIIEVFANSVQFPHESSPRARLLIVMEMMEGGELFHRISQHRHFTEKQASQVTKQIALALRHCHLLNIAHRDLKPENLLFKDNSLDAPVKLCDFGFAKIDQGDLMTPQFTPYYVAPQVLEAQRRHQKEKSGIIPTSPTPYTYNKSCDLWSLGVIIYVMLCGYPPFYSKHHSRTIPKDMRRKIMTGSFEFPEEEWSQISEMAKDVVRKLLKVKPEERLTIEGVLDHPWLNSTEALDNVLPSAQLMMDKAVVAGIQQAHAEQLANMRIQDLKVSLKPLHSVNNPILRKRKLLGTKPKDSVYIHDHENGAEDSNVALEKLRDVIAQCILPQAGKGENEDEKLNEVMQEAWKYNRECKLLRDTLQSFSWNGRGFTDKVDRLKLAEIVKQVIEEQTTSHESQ

RSK1 = RSK1 (Homo sapiens, UniProt Q15418); settings: read-out: Remaining protein kinase activity
SYK = SYK (Homo sapiens, UniProt P43405)
Src = Src (Homo sapiens, UniProt P12931); settings: read-out: Remaining protein kinase activity
TrkA = TrkA (Homo sapiens, UniProt P04629); settings: read-out: Remaining protein kinase activity
VEG-FR = VEG-FR (Homo sapiens, UniProt P17948); settings: read-out: Remaining protein kinase activity
WNK1 = WNK1 (Homo sapiens, UniProt Q9H4A3)
p38a MAPK = p38a MAPK (Homo sapiens, UniProt Q16539)
p38a MAPK, sequence (Q16539 whole entry): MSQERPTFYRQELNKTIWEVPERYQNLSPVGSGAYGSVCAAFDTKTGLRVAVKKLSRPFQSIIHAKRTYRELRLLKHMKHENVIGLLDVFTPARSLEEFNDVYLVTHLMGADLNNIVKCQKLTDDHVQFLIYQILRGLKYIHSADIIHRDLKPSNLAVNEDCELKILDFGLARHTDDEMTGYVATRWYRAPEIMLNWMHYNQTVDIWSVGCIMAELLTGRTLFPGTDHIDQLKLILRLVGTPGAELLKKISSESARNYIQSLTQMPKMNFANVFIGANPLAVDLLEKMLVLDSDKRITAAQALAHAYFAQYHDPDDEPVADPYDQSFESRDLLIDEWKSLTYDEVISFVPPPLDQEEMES

RSK1, sequence (Q15418 whole entry, species assumed): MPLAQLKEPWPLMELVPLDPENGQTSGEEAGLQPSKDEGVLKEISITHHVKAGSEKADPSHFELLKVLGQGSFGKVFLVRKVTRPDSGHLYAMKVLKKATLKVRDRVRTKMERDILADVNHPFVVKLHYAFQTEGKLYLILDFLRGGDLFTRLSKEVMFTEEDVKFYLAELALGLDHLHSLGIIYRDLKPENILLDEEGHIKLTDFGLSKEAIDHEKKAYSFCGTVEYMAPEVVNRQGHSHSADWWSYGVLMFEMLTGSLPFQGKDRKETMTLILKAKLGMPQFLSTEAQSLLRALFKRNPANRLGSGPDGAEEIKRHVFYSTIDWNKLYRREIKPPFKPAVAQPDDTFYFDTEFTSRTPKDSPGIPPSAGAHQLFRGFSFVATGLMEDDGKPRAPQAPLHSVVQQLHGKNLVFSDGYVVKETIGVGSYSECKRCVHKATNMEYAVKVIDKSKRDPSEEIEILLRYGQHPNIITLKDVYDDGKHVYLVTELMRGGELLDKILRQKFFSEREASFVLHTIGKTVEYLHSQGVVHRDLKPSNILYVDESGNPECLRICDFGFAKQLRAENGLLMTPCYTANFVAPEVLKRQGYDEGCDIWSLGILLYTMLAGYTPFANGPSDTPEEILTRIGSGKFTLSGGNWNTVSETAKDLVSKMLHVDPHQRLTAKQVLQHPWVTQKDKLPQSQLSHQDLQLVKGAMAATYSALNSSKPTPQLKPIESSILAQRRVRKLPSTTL
PIM1, sequence (P11309 whole entry): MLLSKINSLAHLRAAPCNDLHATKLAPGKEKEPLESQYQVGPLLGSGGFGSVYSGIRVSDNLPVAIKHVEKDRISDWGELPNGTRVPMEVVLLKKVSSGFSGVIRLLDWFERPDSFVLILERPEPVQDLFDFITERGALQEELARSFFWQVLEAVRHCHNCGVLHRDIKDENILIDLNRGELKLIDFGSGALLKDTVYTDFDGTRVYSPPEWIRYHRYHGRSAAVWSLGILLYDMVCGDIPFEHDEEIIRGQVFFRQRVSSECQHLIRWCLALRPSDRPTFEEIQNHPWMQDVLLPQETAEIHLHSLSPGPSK
Src, sequence (P12931 whole entry): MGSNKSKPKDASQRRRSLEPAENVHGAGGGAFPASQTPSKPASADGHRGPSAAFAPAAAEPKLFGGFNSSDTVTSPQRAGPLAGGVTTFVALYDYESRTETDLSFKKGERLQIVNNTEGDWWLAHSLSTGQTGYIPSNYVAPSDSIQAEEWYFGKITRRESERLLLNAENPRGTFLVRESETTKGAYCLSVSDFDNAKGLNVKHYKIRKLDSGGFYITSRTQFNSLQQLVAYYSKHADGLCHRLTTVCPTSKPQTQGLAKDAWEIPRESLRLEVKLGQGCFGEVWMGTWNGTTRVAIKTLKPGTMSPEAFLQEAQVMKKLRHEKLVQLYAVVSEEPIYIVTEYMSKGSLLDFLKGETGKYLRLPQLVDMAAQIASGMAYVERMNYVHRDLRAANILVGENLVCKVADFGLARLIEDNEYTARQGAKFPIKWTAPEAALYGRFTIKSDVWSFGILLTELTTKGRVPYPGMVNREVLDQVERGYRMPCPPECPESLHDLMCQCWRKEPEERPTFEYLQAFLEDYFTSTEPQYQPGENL
HIPK3, sequence (Q9H422 whole entry): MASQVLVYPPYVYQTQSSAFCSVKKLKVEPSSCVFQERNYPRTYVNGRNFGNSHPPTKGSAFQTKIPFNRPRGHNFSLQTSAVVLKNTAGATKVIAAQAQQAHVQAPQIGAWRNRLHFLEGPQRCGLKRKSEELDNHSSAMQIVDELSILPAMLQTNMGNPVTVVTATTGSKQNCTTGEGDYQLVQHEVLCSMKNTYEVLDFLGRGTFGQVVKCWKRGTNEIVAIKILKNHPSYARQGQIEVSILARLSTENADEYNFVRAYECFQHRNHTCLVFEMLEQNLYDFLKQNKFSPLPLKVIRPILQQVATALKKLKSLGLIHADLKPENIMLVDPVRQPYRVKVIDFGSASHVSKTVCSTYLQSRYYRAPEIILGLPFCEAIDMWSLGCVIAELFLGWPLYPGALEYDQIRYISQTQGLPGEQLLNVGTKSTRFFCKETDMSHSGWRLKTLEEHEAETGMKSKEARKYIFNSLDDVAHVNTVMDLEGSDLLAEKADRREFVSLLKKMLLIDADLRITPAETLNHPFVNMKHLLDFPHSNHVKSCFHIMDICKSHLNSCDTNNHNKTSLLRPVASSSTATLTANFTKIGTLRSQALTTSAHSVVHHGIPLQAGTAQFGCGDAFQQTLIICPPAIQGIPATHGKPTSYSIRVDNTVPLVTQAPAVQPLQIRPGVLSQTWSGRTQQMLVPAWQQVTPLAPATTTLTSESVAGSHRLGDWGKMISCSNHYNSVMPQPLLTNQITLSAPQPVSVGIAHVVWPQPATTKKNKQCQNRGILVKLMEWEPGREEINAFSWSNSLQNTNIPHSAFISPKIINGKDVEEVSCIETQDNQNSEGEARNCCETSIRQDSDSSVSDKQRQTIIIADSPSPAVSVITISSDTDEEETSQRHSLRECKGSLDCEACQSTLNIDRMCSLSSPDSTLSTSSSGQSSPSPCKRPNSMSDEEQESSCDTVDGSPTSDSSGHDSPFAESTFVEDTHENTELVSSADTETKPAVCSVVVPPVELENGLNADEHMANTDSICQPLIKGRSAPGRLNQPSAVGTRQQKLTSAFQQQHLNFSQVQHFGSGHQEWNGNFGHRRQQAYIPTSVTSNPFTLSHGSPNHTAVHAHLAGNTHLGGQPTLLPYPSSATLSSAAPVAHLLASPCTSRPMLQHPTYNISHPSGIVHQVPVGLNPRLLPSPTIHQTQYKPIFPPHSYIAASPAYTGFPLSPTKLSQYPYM
TrkA, sequence (P04629 33-796): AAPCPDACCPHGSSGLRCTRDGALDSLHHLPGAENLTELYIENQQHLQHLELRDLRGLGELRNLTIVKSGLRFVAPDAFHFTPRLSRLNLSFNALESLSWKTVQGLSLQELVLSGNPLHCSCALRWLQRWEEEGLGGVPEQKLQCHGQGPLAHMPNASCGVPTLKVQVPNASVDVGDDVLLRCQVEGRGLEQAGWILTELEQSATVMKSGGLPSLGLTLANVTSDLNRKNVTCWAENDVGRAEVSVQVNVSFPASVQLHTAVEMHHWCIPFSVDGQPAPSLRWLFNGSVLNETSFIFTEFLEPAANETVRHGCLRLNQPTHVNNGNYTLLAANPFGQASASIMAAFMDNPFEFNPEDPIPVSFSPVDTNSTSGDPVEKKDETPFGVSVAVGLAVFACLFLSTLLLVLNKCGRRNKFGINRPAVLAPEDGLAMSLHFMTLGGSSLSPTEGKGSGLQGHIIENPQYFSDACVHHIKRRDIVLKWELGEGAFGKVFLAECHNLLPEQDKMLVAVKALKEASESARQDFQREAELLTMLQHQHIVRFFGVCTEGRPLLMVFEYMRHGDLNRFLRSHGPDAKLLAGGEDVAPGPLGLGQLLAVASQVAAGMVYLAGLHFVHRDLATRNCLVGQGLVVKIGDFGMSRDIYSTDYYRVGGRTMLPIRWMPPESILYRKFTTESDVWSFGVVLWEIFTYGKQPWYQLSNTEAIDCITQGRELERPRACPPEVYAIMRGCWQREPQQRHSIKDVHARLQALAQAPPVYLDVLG

## COc1ccc2sc(-c3cncc(N)c3)nc2c1 [compound 1, 5-(5-Methoxybenzo[d]thiazol-2-yl)pyridin-3-amine]
HIPK3; HIPK3, 1 μM
  remaining activity at 1 µM: 120%
HIPK3; HIPK3, 100 μM
  remaining activity at 100 µM: 28%
JAK2; 1 μM
  Remaining protein kinase activity: 117%
JAK2; 100 μM
  Remaining protein kinase activity: 55%
NEK2a; NEK2a, 1 μM
  remaining activity at 1 µM: 111%
NEK2a; NEK2a, 100 μM
  remaining activity at 100 µM: 51%
PIM1; PIM1, 1 μM
  remaining activity at 1 µM: 87%
PIM1; PIM1, 100 μM
  remaining activity at 100 µM: 24%
PINK
  remaining activity at 1 µM: 121%
  remaining activity at 100 µM: 114%
PKCγ; PKCγ, 1 μM
  remaining activity at 1 µM: 115%
PKCγ; PKCγ, 100 μM
  remaining activity at 100 µM: 61%
PRAK; PRAK, 1 μM
  remaining activity at 1 µM: 128%
PRAK; PRAK, 100 μM
  remaining activity at 100 µM: 36%
RSK1; RSK1, 1 μM
  remaining activity at 1 µM: 99%
RSK1; RSK1, 100 μM
  remaining activity at 100 µM: 42%
SYK; 1 μM
  Remaining protein kinase activity: 113%
SYK; 100 μM
  Remaining protein kinase activity: 38%
Src; Src, 1 μM
  remaining activity at 1 µM: 123%
Src; Src, 100 μM
  remaining activity at 100 µM: 42%
TrkA; TrkA, 1 μM
  remaining activity at 1 µM: 104%
TrkA; TrkA, 100 μM
  remaining activity at 100 µM: 33%
VEG-FR; VEG-FR, 1 μM
  remaining activity at 1 µM: 110%
VEG-FR; VEG-FR, 100 μM
  remaining activity at 100 µM: 20%
WNK1; 1 μM
  Remaining protein kinase activity: 116%
WNK1; 100 μM
  Remaining protein kinase activity: 113%
p38a MAPK; 1 μM
  Remaining protein kinase activity: 103%
p38a MAPK; 100 μM
  Remaining protein kinase activity: 96%

## COc1ccc2sc(-c3cncc(NC(C)=O)c3)nc2c1 [PST-001, N-(5-(5-Methoxybenzo[d]thiazol-2-yl)pyridin-3-yl)acetamide]
HIPK3
  remaining activity at 1 µM: 123%
  remaining activity at 100 µM: 100%
JAK2; 1 μM
  Remaining protein kinase activity: 123%
JAK2; 100 μM
  Remaining protein kinase activity: 125%
NEK2a
  remaining activity at 1 µM: 119%
PIM1
  remaining activity at 1 µM: 98%
  remaining activity at 100 µM: 32%
PINK
  remaining activity at 1 µM: 119%
  remaining activity at 100 µM: 118%
PKCγ
  remaining activity at 1 µM: 125%
  remaining activity at 100 µM: 124%
PRAK
  remaining activity at 1 µM: 114%
  remaining activity at 100 µM: 116%
RSK1
  remaining activity at 1 µM: 99%
  remaining activity at 100 µM: 88%
SYK; 1 μM
  Remaining protein kinase activity: 112%
SYK; 100 μM
  Remaining protein kinase activity: 58%
Src
  remaining activity at 1 µM: 100%
  remaining activity at 100 µM: 106%
TrkA
  remaining activity at 1 µM: 111%
  remaining activity at 100 µM: 45%
VEG-FR
  remaining activity at 1 µM: 111%
  remaining activity at 100 µM: 41%
WNK1; 1 μM
  Remaining protein kinase activity: 127%
WNK1; 100 μM
  Remaining protein kinase activity: 118%
p38a MAPK; 1 μM
  Remaining protein kinase activity: 110%
p38a MAPK; 100 μM
  Remaining protein kinase activity: 106%
